Reference: patent US12194124B2, “Personal care compositions for treating odor causing bacteria and methods for the same” (Colgate-Palmolive Company, priority 2019, dated 2025)

Test system: C. Striatum
Assay: Growth inhibition assay in 96-well plate, optical density of C. Striatum
Assay type: cell-based, Corynebacterium striatum
Protocol: The efficacy of 2-butyl octanol for selectively promoting, inhibiting, reducing, and/or treating bacterial growth was evaluated. Particularly, the efficacy of 2-butyl octanol for selectively promoting, inhibiting, reducing, and/or treating bacterial growth of Corynebacterium and Staphylococcus was evaluated. To evaluate the efficacy, an active solution was prepared by emulsifying 2-butyl octanol with a nonionic surfactant, namely, Polysorbate 80. The active solution included the 2-butyl octanol and the Polysorbate 80 in a ratio of about 83:17. Both positive controls (including no active solution) and negative controls (including no bacteria) were also prepared.
A 96-well plate was utilized to evaluate the growth of the respective bacteria at varying dilutions. Each of the wells of a 96-well plate was aseptically filled with about 100 μL of Tryptic Soy Broth (TSB). In the first well of each row, about 100 μL of either the active solution (including the 2-butyl octanol and Polysorbate 80) or the desired solvent for the respective positive and negative controls was added to thereby provide a total of about 200 μL in the first well of the each respective row. A multi-channel pipette was then utilized to prepare a two-fold dilution in each column. Specifically, a multi-channel pipette set to about 100 μL was utilized to mix and transfer about 100 μL of the 200 μL from the wells of the first column to the respective wells of a subsequent column. This was repeated for each of the remaining eleven columns. About 100 μL of the twelfth column was removed, thereby leaving about 100 μL in each of the 96 wells. […] Specifically, a phosphate buffered saline (PBS) was utilized for the negative control. About 100 μL of the respective bacteria adjusted to 0.1 optical density (OD) bacteria was added to all other wells. The well plate was then incubated overnight at about 37° C. in a growth inhibition assay machine. Measurements were taken at about one hour increments.

CCCCCCC(CO)CCCC (stereo not shown) [2-butyl octanol, 2-butyl-1-octanol]
Measured Optical Density of C. Striatum (0.02% 2-Butyl Octanol, 1 Hour): 0 | Measured Optical Density of C. Striatum (0.02% 2-Butyl Octanol, 2 Hour): 0.086 | Measured Optical Density of C. Striatum (0.02% 2-Butyl Octanol, 3 Hour): 0.13 | Measured Optical Density of C. Striatum (0.02% 2-Butyl Octanol, 4 Hour): 0.139 | Measured Optical Density of C. Striatum (0.02% 2-Butyl Octanol, 5 Hour): 0.143 | Measured Optical Density of C. Striatum (0.02% 2-Butyl Octanol, 6 Hour): 0.144 | Measured Optical Density of C. Striatum (0.02% 2-Butyl Octanol, 7 Hour): 0.144 | Measured Optical Density of C. Striatum (0.02% 2-Butyl Octanol, 8 Hour): 0.144 | Measured Optical Density of C. Striatum (0.02% 2-Butyl Octanol, 9 Hour): 0.146 | Measured Optical Density of C. Striatum (0.02% 2-Butyl Octanol, 10 Hour): 0.149 | Measured Optical Density of C. Striatum (0.02% 2-Butyl Octanol, 11 Hour): 0.155 | Measured Optical Density of C. Striatum (0.02% 2-Butyl Octanol, 12 Hour): 0.163 | Measured Optical Density of C. Striatum (0.02% 2-Butyl Octanol, 13 Hour): 0.178 | Measured Optical Density of C. Striatum (0.02% 2-Butyl Octanol, 14 Hour): 0.21 | Measured Optical Density of C. Striatum (0.02% 2-Butyl Octanol, 15 Hour): 0.254 | Measured Optical Density of C. Striatum (0.02% 2-Butyl Octanol, 16 Hour): 0.322 | Measured Optical Density of C. Striatum (0.02% 2-Butyl Octanol, 17 Hour): 0.404 | Measured Optical Density of C. Striatum (0.02% 2-Butyl Octanol, 18 Hour): 0.52 | Measured Optical Density of C. Striatum (0.04% 2-Butyl Octanol, 1 Hour): 0.006 | Measured Optical Density of C. Striatum (0.04% 2-Butyl Octanol, 2 Hour): 0.058 | Measured Optical Density of C. Striatum (0.04% 2-Butyl Octanol, 3 Hour): 0.088 | Measured Optical Density of C. Striatum (0.04% 2-Butyl Octanol, 4 Hour): 0.1 | Measured Optical Density of C. Striatum (0.04% 2-Butyl Octanol, 5 Hour): 0.111 | Measured Optical Density of C. Striatum (0.04% 2-Butyl Octanol, 6 Hour): 0.117 | Measured Optical Density of C. Striatum (0.04% 2-Butyl Octanol, 7 Hour): 0.121 | Measured Optical Density of C. Striatum (0.04% 2-Butyl Octanol, 8 Hour): 0.124 | Measured Optical Density of C. Striatum (0.04% 2-Butyl Octanol, 9 Hour): 0.127 | Measured Optical Density of C. Striatum (0.04% 2-Butyl Octanol, 10 Hour): 0.13 | Measured Optical Density of C. Striatum (0.04% 2-Butyl Octanol, 11 Hour): 0.133 | Measured Optical Density of C. Striatum (0.04% 2-Butyl Octanol, 12 Hour): 0.136 | Measured Optical Density of C. Striatum (0.04% 2-Butyl Octanol, 13 Hour): 0.141 | Measured Optical Density of C. Striatum (0.04% 2-Butyl Octanol, 14 Hour): 0.149 | Measured Optical Density of C. Striatum (0.04% 2-Butyl Octanol, 15 Hour): 0.166 | Measured Optical Density of C. Striatum (0.04% 2-Butyl Octanol, 16 Hour): 0.192 | Measured Optical Density of C. Striatum (0.04% 2-Butyl Octanol, 17 Hour): 0.234 | Measured Optical Density of C. Striatum (0.04% 2-Butyl Octanol, 18 Hour): 0.298 | Measured Optical Density of C. Striatum (0.08% 2-Butyl Octanol, 1 Hour): 0.014 | Measured Optical Density of C. Striatum (0.08% 2-Butyl Octanol, 2 Hour): 0.07 | Measured Optical Density of C. Striatum (0.08% 2-Butyl Octanol, 3 Hour): 0.108 | Measured Optical Density of C. Striatum (0.08% 2-Butyl Octanol, 4 Hour): 0.118 | Measured Optical Density of C. Striatum (0.08% 2-Butyl Octanol, 5 Hour): 0.124 | Measured Optical Density of C. Striatum (0.08% 2-Butyl Octanol, 6 Hour): 0.127 | Measured Optical Density of C. Striatum (0.08% 2-Butyl Octanol, 7 Hour): 0.129 | Measured Optical Density of C. Striatum (0.08% 2-Butyl Octanol, 8 Hour): 0.131 | Measured Optical Density of C. Striatum (0.08% 2-Butyl Octanol, 9 Hour): 0.132 | Measured Optical Density of C. Striatum (0.08% 2-Butyl Octanol, 10 Hour): 0.133 | Measured Optical Density of C. Striatum (0.08% 2-Butyl Octanol, 11 Hour): 0.133 | Measured Optical Density of C. Striatum (0.08% 2-Butyl Octanol, 12 Hour): 0.134 | Measured Optical Density of C. Striatum (0.08% 2-Butyl Octanol, 13 Hour): 0.137 | Measured Optical Density of C. Striatum (0.08% 2-Butyl Octanol, 14 Hour): 0.141 | Measured Optical Density of C. Striatum (0.08% 2-Butyl Octanol, 15 Hour): 0.151 | Measured Optical Density of C. Striatum (0.08% 2-Butyl Octanol, 16 Hour): 0.168 | Measured Optical Density of C. Striatum (0.08% 2-Butyl Octanol, 17 Hour): 0.194 | Measured Optical Density of C. Striatum (0.08% 2-Butyl Octanol, 18 Hour): 0.23 | Measured Optical Density of C. Striatum (0.16% 2-Butyl Octanol, 1 Hour): 0.038 | Measured Optical Density of C. Striatum (0.16% 2-Butyl Octanol, 2 Hour): 0.037 | Measured Optical Density of C. Striatum (0.16% 2-Butyl Octanol, 3 Hour): 0.036 | Measured Optical Density of C. Striatum (0.16% 2-Butyl Octanol, 4 Hour): 0.036 | Measured Optical Density of C. Striatum (0.16% 2-Butyl Octanol, 5 Hour): 0.036 | Measured Optical Density of C. Striatum (0.16% 2-Butyl Octanol, 6 Hour): 0.036 | Measured Optical Density of C. Striatum (0.16% 2-Butyl Octanol, 7 Hour): 0.035 | Measured Optical Density of C. Striatum (0.16% 2-Butyl Octanol, 8 Hour): 0.036 | Measured Optical Density of C. Striatum (0.16% 2-Butyl Octanol, 9 Hour): 0.036 | Measured Optical Density of C. Striatum (0.16% 2-Butyl Octanol, 10 Hour): 0.037 | Measured Optical Density of C. Striatum (0.16% 2-Butyl Octanol, 11 Hour): 0.037 | Measured Optical Density of C. Striatum (0.16% 2-Butyl Octanol, 12 Hour): 0.037 | Measured Optical Density of C. Striatum (0.16% 2-Butyl Octanol, 13 Hour): 0.038 | Measured Optical Density of C. Striatum (0.16% 2-Butyl Octanol, 14 Hour): 0.038 | Measured Optical Density of C. Striatum (0.16% 2-Butyl Octanol, 15 Hour): 0.039 | Measured Optical Density of C. Striatum (0.16% 2-Butyl Octanol, 16 Hour): 0.04 | Measured Optical Density of C. Striatum (0.16% 2-Butyl Octanol, 17 Hour): 0.041 | Measured Optical Density of C. Striatum (0.16% 2-Butyl Octanol, 18 Hour): 0.041 | growth of C. stratium (2-butyl octanol at least about 1.6% or greater (Table 3)): completely inhibited
